Here are results for two molecules from ChEMBL document CHEMBL1135292, “A practical synthesis of (S) 3-tert-butoxycarbonylamino-2-oxo-2,3,4,5-tetrahydro-1,5-benzodiazepine-1-acetic acid methyl ester as a conformationally restricted dipeptido-mimetic for caspase-1 (ICE) inhibitors” (Bioorg Med Chem Lett, 2002).

One test addresses T1, Caspase-1 (Homo sapiens, UniProt P29466).
T1 sequence (P29466 whole entry): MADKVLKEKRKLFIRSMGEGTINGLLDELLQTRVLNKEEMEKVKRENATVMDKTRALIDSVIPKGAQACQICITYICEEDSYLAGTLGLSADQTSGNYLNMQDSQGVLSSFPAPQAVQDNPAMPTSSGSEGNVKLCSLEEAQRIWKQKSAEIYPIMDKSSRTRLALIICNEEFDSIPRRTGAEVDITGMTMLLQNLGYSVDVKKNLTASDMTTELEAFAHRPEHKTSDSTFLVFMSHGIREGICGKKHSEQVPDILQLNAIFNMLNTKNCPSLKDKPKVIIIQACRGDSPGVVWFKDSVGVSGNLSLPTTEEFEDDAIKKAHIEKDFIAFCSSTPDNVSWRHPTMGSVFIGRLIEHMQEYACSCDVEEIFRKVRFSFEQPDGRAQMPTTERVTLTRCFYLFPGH
Put plainly: Compound was tested for inhibitory activity against IL-1 beta converting enzyme.

Another test is filed under the species Homo sapiens. In words: Ability to block the release of interleukin-1 beta from human whole blood stimulated with heat-killed staphylococcus aureus. The test is classed as functional, organism-based.

In the case of `O=C(CN1C(=O)[C@@H](NC(=O)c2ccccc2)CN(C(=O)CCc2ccccc2)c2ccccc21)N[C@H]1CC(=O)OC1O` (some centres not stated), affinity on Caspase-1 was put at a Ki of 0.09 µM. In other words, the double-digit nanomolar range.

Turning to `CC(=O)N[C@@H](Cc1ccc(O)cc1)C(=O)N[C@H](C(=O)N[C@@H](C)C(=O)N[C@H]1CC(=O)OC1O)C(C)C` (some centres not stated), the IC50 in the test filed under Homo sapiens turned out to be 4 µM.
